Reference: article PMC9504208, “Comprehensive Study of Antiretroviral Drug Permeability at the Cervicovaginal Mucosa via an In Vitro Model” (Pharmaceutics, 2022)
Like-named read-outs stand apart in the source and are kept apart here.

Legend:
[1] = Cell-associated drug and distribution between apical and basolateral compartments after absorptive permeability assay; format: in vitro ADME, human; conditions: human, pH 7.4; 0.2% Poloxamer in receiver; read-out: Recovery from the apical compartment;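 further: transwell transport run over 2 h at 37 °C, radiolabelled drug quantified by liquid scintillation counting, with insert membranes also counted for mass balance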
Procedure: (§1) All transport experiments were undertaken over a 2-h period (unless stated) at 37 °C in HBSS supplemented with 1% HEPES buffer (Sigma-Aldrich) at pH 7.4 as reported [22]. HBSS was used to prevent the drug from binding to albumin present in cell culture media. All solutions were warmed to 37 °C and experiments were performed on a heated orbital shaker set at 50 RPM. […] Prior to the initiation of the drug transport experiments, TEER was measured. Cell layers were then washed twice with pre-warmed HBSS+1%HEPES transport buffer and equilibrated in the same solution for 30 min at 37 °C. […] The experiment was initiated when either the donor or receiver solutions were added to the respective compartments. Following the addition of donor solution, 20 µL samples were taken immediately from donor and receiver compartments, T = 0 (for assessment of initial concentration and background radioactivity, respectively). Transwells® were then placed on an orbital shaker set at 50 RPM. Samples, either 200 µL (apical) or 600 µL (basolateral), were taken from the receiver compartments at time points T = 30, T = 60, T = 90 and T = 120 and added to polyethylene liquid scintillation vials. Samples were taken in triplicate and replaced with equivalent volumes of the receiver solution. After final sampling, TEER was measured to confirm that there was no disruption to the epithelial barrier during the experimental procedure. Radioactive samples were mixed with 4 mL of scintillation fluid (Fisher Scientific, Waltham, MA, USA) and analysed using a liquid scintillation counter (Beckman Coulter, Brea, CA, USA). The semipermeable membranes of the Transwell® inserts were cut and also placed into scintillation vials for mass balance measurements.

[2] = test system: HEC-1A cells; test: as above; format: in vitro ADME, human
Procedure: as §1

[3] = ref DrugBank; cited from earlier work
[4] = test system: HEC-1A barrier model; test: Permeability of labelled drug across HEC-1A model on coadministration with a second ARV; format: in vitro ADME, human; conditions: labelled drug 10 µM
Procedure: All transport experiments were undertaken over a 2-h period (unless stated) at 37 °C in HBSS supplemented with 1% HEPES buffer (Sigma-Aldrich) at pH 7.4 as reported [22]. HBSS was used to prevent the drug from binding to albumin present in cell culture media. All solutions were warmed to 37 °C and experiments were performed on a heated orbital shaker set at 50 RPM. […] Prior to the initiation of the drug transport experiments, TEER was measured. Cell layers were then washed twice with pre-warmed HBSS+1%HEPES transport buffer and equilibrated in the same solution for 30 min at 37 °C. […] The experiment was initiated when either the donor or receiver solutions were added to the respective compartments. Following the addition of donor solution, 20 µL samples were taken immediately from donor and receiver compartments, T = 0 (for assessment of initial concentration and background radioactivity, respectively). Transwells® were then placed on an orbital shaker set at 50 RPM. […] After final sampling, TEER was measured to confirm that there was no disruption to the epithelial barrier during the experimental procedure. Radioactive samples were mixed with 4 mL of scintillation fluid (Fisher Scientific, Waltham, MA, USA) and analysed using a liquid scintillation counter (Beckman Coulter, Brea, CA, USA). […]

[5] = Bi-directional permeability (Papp) across HEC-1A dual chamber (Transwell) barrier model; format: in vitro ADME; conditions: human, pH 7.4, dapivirine 0.1–10 µM in 1% DMSO, read-out: Absorptive permeability Papp
Procedure: The apical chambers of 12-well polycarbonate and polyester systems (Corning Costar Corp, Cambridge, UK) were seeded with different densities of HEC-1A cells in 500 µL of the medium while 1500 µL culture medium was added to the basolateral chamber. -Medium in both chambers was changed every 48–72 h.

- recovery at 2 h [1]: 19 to 21%
- % Drug Distribution Apical ([2]; 0.1 μM): 15.04 ± 0.55%
- % Drug Distribution Basolateral ([2]; 0.1 μM): 2.87 ± 0.26%
- % Drug Distribution Cell-Associated ([2]; 0.1 μM): 82.10 ± 0.30%
- % Drug Distribution Apical ([2]; 0.1 μM + Poloxamer): 16.06 ± 3.26%
- % Drug Distribution Basolateral ([2]; 0.1 μM + Poloxamer): 10.56 ± 1.26%
- % Drug Distribution Cell-Associated ([2]; 0.1 μM + Poloxamer): 73.37 ± 3.37%
- % Drug Distribution Apical ([2]; 1 μM): 14.72 ± 0.10%
- % Drug Distribution Basolateral ([2]; 1 μM): 2.13 ± 0.33%
- % Drug Distribution Cell-Associated ([2]; 1 μM): 83.15 ± 0.35%
- % Drug Distribution Apical ([2]; 1 μM + Poloxamer): 16.47 ± 2.86%
- % Drug Distribution Basolateral ([2]; 1 μM + Poloxamer): 11.01 ± 1.41%
- % Drug Distribution Cell-Associated ([2]; 1 μM + Poloxamer): 72.51 ± 2.86%
- % Drug Distribution Apical ([2]; 5 μM): 14.98 ± 0.76%
- % Drug Distribution Basolateral ([2]; 5 μM): 1.86 ± 0.41%
- % Drug Distribution Cell-Associated ([2]; 5 μM): 83.16 ± 1.15%
- % Drug Distribution Apical ([2]; 5 μM + Poloxamer): 17.47± 2.76%
- % Drug Distribution Basolateral ([2]; 5 μM + Poloxamer): 10.78 ± 1.18%
- % Drug Distribution Cell-Associated ([2]; 5 μM + Poloxamer): 71.75 ± 2.33%
- % Drug Distribution Apical ([2]; 10 μM): 14.52 ± 0.45%
- % Drug Distribution Basolateral ([2]; 10 μM): 2.09 ± 0.18%
- % Drug Distribution Cell-Associated ([2]; 10 μM): 83.39 ± 0.55%
- % Drug Distribution Apical ([2]; 10 μM + Poloxamer): 17.59 ± 3.41%
- % Drug Distribution Basolateral ([2]; 10 μM + Poloxamer): 11.72 ± 1.34%
- % Drug Distribution Cell-Associated ([2]; 10 μM + Poloxamer): 70.69 ± 2.76%
- Recovery from the apical compartment after absorptive permeability assays ([2]; % of initial concentration, no Poloxamer): 15–16%
- Absorptive permeability on coadministration with tenofovir or darunavir [4]: not affected
- Papp A→B at 2 h ([5]; 0.2% (w/v) Poloxamer in basolateral receiver): 9.52 to 11.5 ×10⁻⁶ cm/s
- Papp A→B at 2 h ([5]; no Poloxamer in receiver): 2.5 to 2.61 ×10⁻⁶ cm/s
SMILES: Cc1cc(C)c(Nc2ccnc(Nc3ccc(C#N)cc3)n2)c(C)c1 [dapivirine, Dapivirine]
- logP [3]: 5.6
